Experimental data published in ChEMBL document CHEMBL3580572, “Synthesis of mixed opioid affinity cyclic endomorphin-2 analogues with fluorinated phenylalanines” (ACS Med Chem Lett, 2015).
The source made the active and inactive calls. No cut-off for these calls is given here. Where a SMILES comes first, the peptide text is derived from it. Bridges are numbered along the chain shown (N, C = ends). [ ]: non-standard residue; d: D form. Phe(4-CF3) = N[C@@H](Cc1ccc(C(F)(F)F)cc1)C(=O)O; Dmt = Cc1cc(O)cc(C)c1C[C@H](N)C(=O)O

Assays:
[1] = Metabolic stability in rat brain homogenates assessed as enzymatic degradation by measuring compound remaining at 0.5 mM after 90 mins by RP-HPLC analysis; type: ADME, tissue-based; conditions: brain homogenate, read-out: Stability
Mu-type opioid receptor [2] = target: Mu-type opioid receptor (Rattus norvegicus, UniProt P33535); assay: Displacement of [3H]DAMGO from mu opioid receptor in Wistar rat brain membranes after 120 mins by scintillation counting analysis; type: cell membranes, Membrane
Mu-type opioid receptor (Rattus norvegicus, UniProt P33535), sequence (P33535 whole entry): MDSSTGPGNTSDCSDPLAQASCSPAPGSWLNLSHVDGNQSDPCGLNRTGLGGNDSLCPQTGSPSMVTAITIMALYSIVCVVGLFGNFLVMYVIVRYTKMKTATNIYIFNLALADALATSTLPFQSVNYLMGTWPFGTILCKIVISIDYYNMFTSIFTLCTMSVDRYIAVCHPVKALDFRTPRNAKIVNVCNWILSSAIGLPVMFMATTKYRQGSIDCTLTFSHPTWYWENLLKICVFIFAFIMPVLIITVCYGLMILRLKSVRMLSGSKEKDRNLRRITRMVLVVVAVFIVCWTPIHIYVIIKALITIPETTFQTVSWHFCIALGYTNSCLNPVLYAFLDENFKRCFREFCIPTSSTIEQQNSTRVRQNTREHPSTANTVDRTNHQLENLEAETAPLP

[3] = target: Delta-type opioid receptor (Rattus norvegicus, UniProt P33533); assay: Displacement of [3H][Ile5,6]deltorphin-2 from delta opioid receptor in Wistar rat brain membranes after 120 mins by scintillation counting analysis; type: cell membranes, Membrane
Delta-type opioid receptor (Rattus norvegicus, UniProt P33533), sequence (P33533 whole entry): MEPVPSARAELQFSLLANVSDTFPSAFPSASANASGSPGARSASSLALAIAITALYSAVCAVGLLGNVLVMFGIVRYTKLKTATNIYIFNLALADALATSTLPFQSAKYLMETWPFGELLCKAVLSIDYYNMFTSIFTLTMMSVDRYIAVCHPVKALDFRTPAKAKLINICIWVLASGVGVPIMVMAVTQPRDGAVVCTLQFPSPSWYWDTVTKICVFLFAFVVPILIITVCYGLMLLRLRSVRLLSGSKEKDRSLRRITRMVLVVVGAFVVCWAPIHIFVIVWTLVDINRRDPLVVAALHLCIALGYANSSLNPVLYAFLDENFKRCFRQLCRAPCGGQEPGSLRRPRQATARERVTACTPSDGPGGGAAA

[4] = target: Kappa-type opioid receptor (Cavia porcellus, UniProt P41144); assay: Displacement of [3H]nor-BNI from kappa opioid receptor in guinea pig brain membranes after 120 mins by scintillation counting analysis; type: cell membranes, Membrane
Kappa-type opioid receptor (Cavia porcellus, UniProt P41144), sequence (P41144 whole entry): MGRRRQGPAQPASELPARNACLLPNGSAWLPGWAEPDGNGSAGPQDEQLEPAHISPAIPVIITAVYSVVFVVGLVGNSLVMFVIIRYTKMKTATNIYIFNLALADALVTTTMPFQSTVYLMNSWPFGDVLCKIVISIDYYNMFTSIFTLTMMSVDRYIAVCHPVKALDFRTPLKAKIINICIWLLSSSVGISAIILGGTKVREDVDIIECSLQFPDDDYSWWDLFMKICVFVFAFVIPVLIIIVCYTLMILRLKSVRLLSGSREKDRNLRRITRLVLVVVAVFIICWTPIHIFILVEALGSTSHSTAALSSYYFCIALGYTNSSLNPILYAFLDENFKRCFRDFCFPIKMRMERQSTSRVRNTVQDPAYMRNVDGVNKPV

Mu-type opioid receptor [5] = target: T1, Mu-type opioid receptor (Homo sapiens, UniProt P35372); assay: Agonist activity at human recombinant mu opioid receptor expressed in CHO cells co-expressing C-terminally modified GGalphaqi5 assessed as stimulation of calcium release by Fluo-4 AM dye-based fluorescence assay; type: functional, cell-based
T1 sequence (P35372 whole entry): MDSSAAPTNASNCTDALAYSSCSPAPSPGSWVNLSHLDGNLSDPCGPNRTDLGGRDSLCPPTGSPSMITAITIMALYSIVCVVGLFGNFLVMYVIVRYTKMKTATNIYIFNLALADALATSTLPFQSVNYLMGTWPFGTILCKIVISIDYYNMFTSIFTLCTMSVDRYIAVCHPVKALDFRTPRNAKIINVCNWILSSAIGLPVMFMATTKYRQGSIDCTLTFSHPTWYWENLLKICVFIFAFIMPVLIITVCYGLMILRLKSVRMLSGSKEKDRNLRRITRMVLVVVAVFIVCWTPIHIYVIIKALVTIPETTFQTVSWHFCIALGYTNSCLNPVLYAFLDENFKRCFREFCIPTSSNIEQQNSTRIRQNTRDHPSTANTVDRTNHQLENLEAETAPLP

[6] = target: T2, Delta-type opioid receptor (Homo sapiens, UniProt P41143); assay: Agonist activity at human recombinant delta opioid receptor expressed in CHO cells co-expressing Galphaq66Di5 assessed as stimulation of calcium release up to 1 uM by Fluo-4 AM dye-based fluorescence assay; type: functional, cell-based
T2 sequence (P41143 whole entry): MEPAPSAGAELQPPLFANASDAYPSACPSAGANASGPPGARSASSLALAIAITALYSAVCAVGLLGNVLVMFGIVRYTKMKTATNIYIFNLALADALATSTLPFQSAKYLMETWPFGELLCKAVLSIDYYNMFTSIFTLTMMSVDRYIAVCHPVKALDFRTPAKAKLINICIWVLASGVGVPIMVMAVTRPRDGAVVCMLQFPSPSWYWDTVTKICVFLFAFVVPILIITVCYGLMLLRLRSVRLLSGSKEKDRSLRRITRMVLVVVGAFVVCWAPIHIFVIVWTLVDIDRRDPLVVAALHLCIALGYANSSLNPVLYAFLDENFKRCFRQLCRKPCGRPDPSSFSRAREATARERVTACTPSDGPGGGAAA

[7] = target: T3, Kappa-type opioid receptor (Homo sapiens, UniProt P41145); assay: Agonist activity at human recombinant kappa opioid receptor expressed in CHO cells co-expressing C-terminally modified Galphaqi5 assessed as stimulation of calcium release by Fluo-4 AM dye-based fluorescence assay; type: functional, cell-based
T3 sequence (P41145 whole entry): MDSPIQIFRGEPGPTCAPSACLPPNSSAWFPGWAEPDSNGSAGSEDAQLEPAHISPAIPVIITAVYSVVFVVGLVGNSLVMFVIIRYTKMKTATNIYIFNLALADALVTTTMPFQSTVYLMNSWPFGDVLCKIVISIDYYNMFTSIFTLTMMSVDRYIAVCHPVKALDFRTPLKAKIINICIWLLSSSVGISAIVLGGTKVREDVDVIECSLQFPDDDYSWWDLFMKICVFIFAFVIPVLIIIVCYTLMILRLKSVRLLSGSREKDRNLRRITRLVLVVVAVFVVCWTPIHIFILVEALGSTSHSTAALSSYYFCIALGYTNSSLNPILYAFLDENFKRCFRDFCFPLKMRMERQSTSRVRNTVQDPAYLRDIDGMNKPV

[8] = target: T3, Kappa-type opioid receptor; assay: Intrinsic activity at human recombinant kappa opioid receptor expressed in CHO cells co-expressing C-terminally modified Galphaqi5 assessed as efficacy ratio by measuring stimulation of calcium release by Fluo-4 AM dye-based fluorescence assay relative to dynorphin-A; type: functional, cell-based
Mu-type opioid receptor [9] = target: T1, Mu-type opioid receptor; assay: Agonist activity at human recombinant mu opioid receptor expressed in CHO cells co-expressing C-terminally modified Galphaqi5 assessed as stimulation of calcium release up to 1 uM by Fluo-4 AM dye-based fluorescence assay; type: functional, cell-based
[10] = target: T2, Delta-type opioid receptor; assay: Agonist activity at human recombinant delta opioid receptor expressed in CHO cells co-expressing Galphaq66Di5 assessed as stimulation of calcium release by Fluo-4 AM dye-based fluorescence assay; type: functional, cell-based
[11] = target: T2, Delta-type opioid receptor; assay: Intrinsic activity at human recombinant delta opioid receptor expressed in CHO cells co-expressing Galphaq66Di5 assessed as efficacy ratio by measuring stimulation of calcium release by Fluo-4 AM dye-based fluorescence assay relative to DPDPE; type: functional, cell-based
Mus musculus [12] = assay: Antinociceptive activity in icv dosed CD1 mouse assessed as inhibition of jumping behavior after 10 mins by hot plate assay; type: functional, organism-based
Mus musculus [13] = assay: Antinociceptive activity in CD1 mouse assessed as inhibition of jumping behavior at 0.3 to 10 mg/kg, ip after 15 mins by hot plate assay; type: functional, organism-based
Mus musculus [14] = assay: Antinociceptive activity in CD1 mouse assessed as inhibition of jumping behavior at 100 ng, icv after 10 mins by hot plate assay in presence of mu opioid receptor antagonist beta-FNA; type: functional, organism-based
Mus musculus [15] = assay: Antinociceptive activity in CD1 mouse assessed as inhibition of jumping behavior at 100 ng, icv after 10 mins by hot plate assay in presence of kappa opioid receptor antagonist nor-BNI; type: functional, organism-based
Mus musculus [16] = assay: Antinociceptive activity in CD1 mouse assessed as maximal possible effect by measuring inhibition of jumping behavior at 10 mg/kg, ip after 15 mins by hot plate assay relative to control; type: functional

| Structure (SMILES) | remaining at 1.5 h, 500 µM [1] [%] | IC50 (Mu-type opioid receptor [2]) [nM] | IC50 [3] [nM] | IC50 [4] [nM] | EC50 (Mu-type opioid receptor [5]) [nM] | Activity [6] | EC50 [7] [nM] | Ratio [8] | Activity (Mu-type opioid receptor [9]) | EC50 [10] [nM] | Ratio [11] | inhibition (Mus musculus [12]) | inhibition (Mus musculus [13]) | inhibition (Mus musculus [14]) | inhibition (Mus musculus [15]) | MPE (Mus musculus [16]) [%] |
| --- | --- | --- | --- | --- | --- | --- | --- | --- | --- | --- | --- | --- | --- | --- | --- | --- |
| NC(=O)[C@H](Cc1ccccc1)NC(=O)[C@H](Cc1ccccc1)NC(=O)[C@@H]1CCCN1C(=O)[C@@H](N)Cc1ccc(O)cc1 [ENDOMORPHIN 2] | 0.61 |  |  |  |  |  |  |  |  |  |  |  |  |  |  |  |
| Cc1cc(O)cc(C)c1C[C@H](N)C(=O)N[C@@H]1CCCCNC(=O)C[C@@H](C(N)=O)NC(=O)[C@H](Cc2ccccc2)NC(=O)[C@H](Cc2ccc(F)cc2)NC1=O | 96 | 0.55 | 280 | 2.4 | 2.51 | inactive | 4.79 | 0.79 |  |  |  |  |  |  |  |  |
| NC(=O)[C@@H]1CC(=O)NCCCC[C@@H](NC(=O)[C@@H](N)Cc2ccc(O)cc2)C(=O)N[C@@H](Cc2ccc(F)cc2F)C(=O)N[C@@H](Cc2ccccc2)C(=O)N1 | 93 | 0.69 | > 1000 | 3.26 | 4.07 | inactive | 7.59 | 0.78 |  |  |  |  |  |  |  |  |
| NC(=O)[C@@H]1CC(=O)NCCCC[C@@H](NC(=O)[C@@H](N)Cc2ccc(O)cc2)C(=O)N[C@@H](Cc2ccc(C(F)(F)F)cc2)C(=O)N[C@@H](Cc2ccccc2)C(=O)N1 | 97 | > 1000 | > 1000 | 24.5 |  | inactive | 72.4 | 0.7 | inactive |  |  |  |  |  |  |  |
| Cc1cc(O)cc(C)c1C[C@H](N)C(=O)N[C@@H]1CCCCNC(=O)C[C@@H](C(N)=O)NC(=O)[C@H](Cc2ccc(C(F)(F)F)cc2)NC(=O)[C@H](Cc2ccccc2)NC1=O (H-[Dmt][dK]F[Phe(4-CF3)]D-NH2; lactam 2-5) | 93 | 0.92 | > 1000 | 1.15 | 6.76 | inactive | 3.63 | 0.6 |  |  |  |  |  |  |  |  |
| Cc1cc(O)cc(C)c1C[C@H](N)C(=O)N[C@@H]1CCCCNC(=O)C[C@@H](C(N)=O)NC(=O)[C@H](Cc2ccccc2)NC(=O)[C@H](Cc2ccc(F)cc2F)NC1=O | 94 | 0.54 | 342 | 0.6 | 5.13 |  | 2.82 | 0.65 |  |  |  |  |  |  |  |  |
| NC(=O)[C@@H]1CC(=O)NCCCC[C@@H](NC(=O)[C@@H](N)Cc2ccc(O)cc2)C(=O)N[C@@H](Cc2ccccc2)C(=O)N[C@@H](Cc2ccc(F)cc2F)C(=O)N1 | 94 | 0.42 | 110 | 0.9 | 6.31 |  | 4.9 | 0.78 |  | 126 | 0.5 |  |  |  |  |  |
| NC(=O)[C@@H]1CC(=O)NCCCC[C@@H](NC(=O)[C@@H](N)Cc2ccc(O)cc2)C(=O)N[C@@H](Cc2ccccc2)C(=O)N[C@@H](Cc2ccc(C(F)(F)F)cc2)C(=O)N1 | 97 | 1.6 | 429 | 1.5 | 5.25 |  | 11.7 | 0.78 |  | 162 | 0.27 |  |  |  |  |  |
| Cc1cc(O)cc(C)c1C[C@H](N)C(=O)N[C@@H]1CCCCNC(=O)C[C@@H](C(N)=O)NC(=O)[C@H](Cc2ccc(F)cc2)NC(=O)[C@H](Cc2ccccc2)NC1=O | 93 | 0.61 | 168 | 0.55 | 2.75 |  | 2.24 | 0.71 |  | 33.9 | 0.21 | Dose-dependent effect | Active | inactive | Active |  |
| Cc1cc(O)cc(C)c1C[C@H](N)C(=O)N[C@@H]1CCCCNC(=O)C[C@@H](C(N)=O)NC(=O)[C@H](Cc2ccc(F)cc2F)NC(=O)[C@H](Cc2ccccc2)NC1=O | 97 | 0.49 | 11.2 | 0.3 | 1.66 |  | 1.35 | 0.82 |  | 8.71 | 0.37 | Dose-dependent effect |  | inactive | Active | 84 |
| NC(=O)[C@@H]1CC(=O)NCCCC[C@@H](NC(=O)[C@@H](N)Cc2ccc(O)cc2)C(=O)N[C@@H](Cc2ccccc2)C(=O)N[C@@H](Cc2ccc(F)cc2)C(=O)N1 | 93 | 0.98 | 286 | 0.6 | 3.24 |  | 1.05 | 0.88 |  | 51.3 | 0.2 |  |  |  |  |  |
| Cc1cc(O)cc(C)c1C[C@H](N)C(=O)N[C@@H]1CCCCNC(=O)C[C@@H](C(N)=O)NC(=O)[C@H](Cc2ccccc2)NC(=O)[C@H](Cc2ccc(C(F)(F)F)cc2)NC1=O | 96 | > 1000 | > 1000 | 6.4 |  |  |  |  | inactive | 9.33 | 0.28 |  |  |  |  |  |
| NC(=O)[C@@H]1CC(=O)NCCCC[C@@H](NC(=O)[C@@H](N)Cc2ccc(O)cc2)C(=O)N[C@@H](Cc2ccc(F)cc2)C(=O)N[C@@H](Cc2ccccc2)C(=O)N1 | 96 | 0.72 | 348 | 2.43 | 2.57 |  | 10 | 0.89 |  | 457 | 0.14 |  |  |  |  |  |
